In test [1] the target is T1, recombinant human DOR (Homo sapiens, UniProt P41143).
T1 construct: expressed in transfected cells; supplied by Dr. Eva Varga (University of Arizona); infected with a retrovirus for GαqG66Di5
In words: Calcium mobilization assay, CHO-DOR cells expressing GαqG66Di5. It is filed as cell-based. As for the experimental part: The pharmacological characterization of LP1 derivatives 2 and 10–16 was performed by calcium mobilization assay (Table 2). This procedure was preliminarily validated through a series of experiments where the effects of DPDPE, dermorphin, and dynorphin A were assessed in CHO cells expressing the human recombinant opioid receptors and Gαqi5 or GαqG66Di5 chimeric proteins.
Chinese hamster ovary (CHO) cells expressing the recombinant human MOR and KOR (CHO^MOR and CHO^KOR) were kindly provided by Dr. Larry Toll (SRI International, Menlo Park, CA, USA), and CHO cells expressing the recombinant human DOR (CHO^DOR) were supplied by Dr. Eva Varga (Department of Medical Pharmacology, The University of Arizona, Tucson, AZ, USA). CHO cells lines permanently coexpressing the opioid receptors and the C-terminally modified Gαqi5 were prepared by infecting the CHO lines described above with a recombinant retrovirus expressing the chimeric α subunit and the hygromycin resistance gene. Similarly, CHO cells lines permanently coexpressing DOR and the C-terminally modified GαqG66Di5 were prepared by infecting the CHO lines described above with a recombinant retrovirus expressing the chimeric α subunit and the hygromycin resistance gene. Polyclonal cell lines were generated using the pantropic retroviral expression system form BD-Clontech, as described previously. Stable lines were selected under hygromycin B (100 μg/mL) and geneticin (600 μg/mL) for 2–3 weeks after the infection.
CHO cells, expressing human opioid receptors and the Gαqi5 protein, and CHODOR, expressing the GαqG66Di5 protein, were maintained in culture medium consisting of Dulbecco minimum essential medium (DMEM) and Ham F-12 (1:1) (50/50) supplemented with 10% fetal calf serum (FCS), L-glutamine (2 mM), geneticin (200 μg/mL; G418), hygromycin B (100 μg/mL) at 37 °C in 5% CO2 humidified air. When confluence was reached (3–4 days), cells were subcultured as required using trypsin/EDTA, and used for experimentation. The different cell lines were seeded at a density of […] into black 96-well, clear-bottomed plates. After 24 h incubation, the cells were loaded with medium supplemented with 2.5 mM probenecid, 3 μM of the calcium sensitive fluorescent dye Fluo-4 AM, and 0.01% pluronic acid, for 30 min at 37 °C. Afterwards, the loading solution was aspirated and 100 μL/well of assay buffer—HBSS supplemented with 20 mM HEPES, 2.5 mM probenecid and 500 μM Brilliant Black (Aldrich, St. Louis, MO, USA)—was added. Serial dilutions of ligands for experimental use were made in HBSS/HEPES (20 mM) buffer (containing 0.005% BSA fraction V). After placing both plates (cell culture and compound plate) into the FlexStation II (Molecular Device, Union City, San Jose, CA 94587, USA), fluorescence changes were measured at room temperature. Online additions were carried out in a volume of 50 μL/well. Antagonists were incubated 15 min before the addition of the agonist. Maximum change in fluorescence, expressed in percent of baseline fluorescence, was used to determine agonist response.
Analysis of the binding data was performed using the Origin 7.5 software (OriginLab Corporation, Northampton, MA, USA). In calcium mobilization experiments, data were analyzed by non-linear curve fitting equation, using GraphPad 5.0 software. […] Ligand efficacy was expressed as intrinsic activity (α), calculated as the ratio between the Emax of the ligand and that of the respective standards. Calcium mobilization data were expressed as FIU (fluorescence intensity units) in percent, over the baseline. Agonist potencies are given as pEC50 (the negative logarithm to base 10 of the molar concentration of an agonist that produces 50% of the maximal possible effect, Emax). Concentration response curves to agonists were fitted with the following equation: Effect = baseline + (Emax − baseline)/(1+10^(LogEC50 − X) ∗ HillSlope) where X is the agonist concentration. […]

Test [2] deals with T2, rat-MOR (Rattus norvegicus, UniProt P33535).
T2 construct: expressed in transfected cells
Put plainly: Radioligand competition binding, [3H]-DPN, HEK293 membranes, MOR. To be noted: [3H]-DPN displacement; means ± SEM of three experiments in duplicate; read-out: Ki (μM) ± SEM MOR. As for the experimental part:
All synthesized compounds were tested in vitro by radioligand competition binding using [^3H]-diprenorphine ([^3H]-DPN) to measure the affinity for opioid receptor subtypes in membranes from HEK293 cells stably expressing either MOR, DOR, or KOR, as previously described.
Confluent monolayers of HEK293 (human embryonic kidney 293) cells stably expressing rat-MOR, rat-DOR, or human-KOR were harvested, collected by centrifugation at 1500 rpm for 5 min, and washed once with phosphate-buffered saline (PBS) at pH 7.5. Membranes from cell pellets were carried out as described by Georgoussi and Zioudrou (1993) and Papakonstantinou et al. (2015). Briefly, cell pellets were resuspended in ice-cold membrane buffer (10 mM Tris-HCl, pH 7.5 and 0.1 mM EDTA), homogenized, and centrifuged at 2,000 g for 3 min at 4 °C. Supernatants were further centrifuged at 45,000 rpm for 30 min at 4 °C. The membrane pellet was resuspended in ice-cold membrane buffer at a protein concentration of approximately 1 mg/mL and stored in aliquots at −70 °C. Protein concentration was determined according to Bradford assay.
In the experiments designed to define compound affinity and selectivity for MOR, DOR, and KOR, membranes expressing each of these opioid receptors ([…]) were incubated at 30 °C for 45 min in buffer containing 50 mM Tris-HCl, pH 7.5, 100 mM NaCl, and 10 mM MgCl2 as described by Georgoussi et al. […] The ability of compounds 10–16 to displace [^3H]-DPN (3.75 nM) binding to the opioid receptors was assessed as described by Morou And Georgoussi (2005). Non-specific binding was measured in the presence of […] Naloxone. The reaction was stopped by rapid filtration and three washes in ice-cold 50 mM Tris-HCl, pH 7.4, through GF/C filters (Whatman, Maidstone, UK) using an automated cell harvester (Brandel Inc., Gaithersburg, MD, USA). The radioactivity was measured by liquid scintillation counting (Liquid Scintillation Analyzer, Packard).
Analysis of the binding data was performed using the Origin 7.5 software (OriginLab Corporation, Northampton, MA, USA). In calcium mobilization experiments, data were analyzed by non-linear curve fitting equation, using GraphPad 5.0 software. […] Ligand efficacy was expressed as intrinsic activity (α), calculated as the ratio between the Emax of the ligand and that of the respective standards. Calcium mobilization data were expressed as FIU (fluorescence intensity units) in percent, over the baseline. Agonist potencies are given as pEC50 (the negative logarithm to base 10 of the molar concentration of an agonist that produces 50% of the maximal possible effect, Emax). Concentration response curves to agonists were fitted with the following equation: Effect = baseline + (Emax − baseline)/(1+10^(LogEC50 − X) ∗ HillSlope) where X is the agonist concentration.

T1 sequence (P41143 whole entry): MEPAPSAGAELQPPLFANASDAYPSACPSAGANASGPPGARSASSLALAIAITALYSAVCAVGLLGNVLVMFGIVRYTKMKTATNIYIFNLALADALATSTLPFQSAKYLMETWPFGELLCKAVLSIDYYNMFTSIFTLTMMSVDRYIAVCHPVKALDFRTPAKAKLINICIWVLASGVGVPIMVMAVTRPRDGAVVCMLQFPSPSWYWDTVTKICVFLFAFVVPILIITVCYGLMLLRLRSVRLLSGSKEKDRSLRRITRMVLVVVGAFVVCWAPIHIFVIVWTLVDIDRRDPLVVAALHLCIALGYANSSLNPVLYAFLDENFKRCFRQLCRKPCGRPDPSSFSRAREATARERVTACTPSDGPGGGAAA
T2 sequence (P33535 whole entry): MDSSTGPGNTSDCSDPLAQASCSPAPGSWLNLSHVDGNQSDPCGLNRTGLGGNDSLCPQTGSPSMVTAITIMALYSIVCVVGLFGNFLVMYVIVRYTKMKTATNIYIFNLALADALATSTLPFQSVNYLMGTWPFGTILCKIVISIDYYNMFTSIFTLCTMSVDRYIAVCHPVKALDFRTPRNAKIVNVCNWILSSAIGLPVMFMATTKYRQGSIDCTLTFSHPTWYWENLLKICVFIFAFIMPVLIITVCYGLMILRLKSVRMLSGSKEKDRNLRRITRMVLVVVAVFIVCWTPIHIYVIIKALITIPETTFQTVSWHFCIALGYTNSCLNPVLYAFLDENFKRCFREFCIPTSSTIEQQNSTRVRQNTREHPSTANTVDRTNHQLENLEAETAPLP

As for `C[C@H]1[C@H]2Cc3ccc(O)cc3[C@]1(C)CCN2CCC(=O)Nc1ccccc1` [LP1, 3-[(2R,6R,11R)-8-hydroxy-6,11-dimethyl-1,4,5,6-tetrahydro-2,6-methano-3-benzazocin-3(2H)-yl]-N-phenylpropanamide, reference compound], in test [1], the EC50 is 1120 nM. Also, in test [1] (calcium mobilization), the “functional profile at DOR” value is recorded as “partial DOR agonist”. For the same molecule, the Ki in test [2] is 0.049 ± 0.015 µM.

The term EC50 denotes the concentration that produces a half-maximal response. A word on the Ki: it is the equilibrium dissociation constant of an inhibitor or competing ligand from its target.

Values taken from publication PMC6027146, “Synthesis and Structure-Activity Relationships of (−)-cis-N-Normetazocine-Based LP1 Derivatives” (Pharmaceuticals, 2018).
